In US7470706B2, “Cycloalkyl-substituted 7-amino-4-quinolone-3-carboxylic acid derivatives, process for their preparation and their use as medicaments” (Sanofi-Aventis Deutschland GmbH, priority 2004, dated 2008):

Molecular target: T1, human glycogen phosphorylase a (Homo sapiens, UniProt P06737)
T1 sequence (P06737 1-847): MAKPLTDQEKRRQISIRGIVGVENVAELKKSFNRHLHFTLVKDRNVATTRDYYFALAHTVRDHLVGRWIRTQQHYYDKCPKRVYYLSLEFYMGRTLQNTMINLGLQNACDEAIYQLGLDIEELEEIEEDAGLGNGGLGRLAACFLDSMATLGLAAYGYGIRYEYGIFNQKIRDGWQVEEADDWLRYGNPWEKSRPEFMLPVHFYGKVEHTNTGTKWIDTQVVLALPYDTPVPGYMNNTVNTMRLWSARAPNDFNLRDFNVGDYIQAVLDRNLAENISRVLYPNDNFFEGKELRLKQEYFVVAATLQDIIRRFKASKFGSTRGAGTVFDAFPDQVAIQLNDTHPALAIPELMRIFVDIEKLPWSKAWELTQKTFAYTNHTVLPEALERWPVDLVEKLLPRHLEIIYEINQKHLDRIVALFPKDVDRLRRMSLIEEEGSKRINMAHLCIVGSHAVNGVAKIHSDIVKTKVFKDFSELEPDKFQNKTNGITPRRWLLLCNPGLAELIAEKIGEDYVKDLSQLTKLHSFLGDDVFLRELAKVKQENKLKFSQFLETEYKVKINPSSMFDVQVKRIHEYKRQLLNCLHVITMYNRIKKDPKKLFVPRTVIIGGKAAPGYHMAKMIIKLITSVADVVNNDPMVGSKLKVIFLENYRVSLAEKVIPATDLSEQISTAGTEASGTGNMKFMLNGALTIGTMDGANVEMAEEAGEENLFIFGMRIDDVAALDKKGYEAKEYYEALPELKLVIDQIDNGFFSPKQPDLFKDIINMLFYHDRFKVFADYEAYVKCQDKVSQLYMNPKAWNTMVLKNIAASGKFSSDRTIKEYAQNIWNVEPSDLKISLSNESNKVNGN
Experiment: Glycogen phosphorylase a activity assay
Format: biochemical
Details: 10 μM test substance; reverse direction (glycogen synthesis from glucose 1-phosphate), inorganic phosphate liberation
Protocol: Glycogen Phosphorylase a Activity Assay
The effect of compounds on the activity of the active form of glycogen phosphorylase (GPa) was measured in the reverse direction by following the synthesis of glycogen from glucose 1-phosphate by determining the liberation of inorganic phosphate. All the reactions were carried out as duplicate determinations in microtiter plates with 96 wells (Half Area Plates, Costar No 3696), measuring the change in absorption owing to the formation of the reaction product at the wavelength specified hereinafter in a Multiskan Ascent Elisa Reader (Lab Systems, Finland).
In order to measure the GPa enzymic activity in the reverse direction, the general method of Engers et al. (Engers H D, Shechosky S, Madsen N B, Can J Biochem 1970 July; 48(7):746-754) was used to measure the conversion of glucose 1-phosphate into glycogen and inorganic phosphate, with the following modifications: human glycogen phosphorylase a (for example with 0.76 mg of protein/ml (Aventis Pharma Deutschland GmbH), dissolved in buffer solution E (25 mM β-glycerophosphate, pH 7.0, 1 mM EDTA and 1 mM dithiothreitol) was diluted with buffer T (50 mM Hepes, pH 7.0, 100 mM KCl, 2.5 mM EDTA, 2.5 mM MgCl2.6H2O) and addition of 5 mg/ml glycogen to a concentration of 10 μg of protein/ml. […] After incubation at 45° C. for 60 minutes, the absorption at 820 nm was measured. […]

For C#CC1(Nc2cc3c(=O)c(C(=O)OCC)cn(CC)c3nc2C)CCCCC1 [Example 2], the inhibition at 10 µM was 42%.
In the case of C#CC1(Nc2cc3c(=O)c(C(=O)O)cn(CC)c3nc2C)CCCCC1 [Example 3, 1-Ethyl-6-(1-ethynylcyclohexylamino)-7-methyl-4-oxo-1,4-dihydro[1,8]naphthyridine-3-carboxylic acid], the inhibition at 10 µM is reported as 35%.
